Results on 1 molecule are retold here after patent US7312236B2, “Substituted (4-aminocyclohexen-1-yl)phenyl and (4-aminocyclohexen-1-yl)pyridinyl compounds as 5-HT1F agonists” (Eli Lilly and Company, priority 2004, dated 2007).

In test [1] the test system is rabbit saphenous vein. In words: Rabbit saphenous vein contraction. Conditions: Oryctolagus cuniculus. The protocol:
Bend the tips of two 30-gauge stainless steel hypodermic needles into an L-shape and slip them into the lumen of the polyethylene tubing. Gently push vein tissue from the cannula onto the needles. Separate the needles and attach the lower needle with thread to a stationary glass rod and the upper needle with thread to a force transducer (Statham UC-3). Mount the tissues in organ baths containing 10 mL of modified Krebs' solution. Maintain tissue bath solutions at 37° C. and […] […] Apply an initial optimum resting force of 4 grams to the vein tissue. Record isometric contractions as changes in grams of force on a Beckman Dynograph with Statham UC-3 transducers and microscale accessory attachments. […] Flush the bath, allow the tissue to re-equilibrate under a 4 gram force, add test compound and record the force of contraction. Add additional compound to achieve the next concentration in a range of compound concentrations to generate cumulative agonist concentration-response curves for each test compound. Tissues can be used to generate up to two agonist concentration-response curves. […] Two important parameters can be measured with this vasoconstriction assay, saphenous vein contraction (EC50) and maximal contraction as a percentage of the maximal KCl response (%max KCl).

In test [2] the test system is dural protein extravasation. The test can be described thus: Dural protein extravasation assay (trigeminal ganglion stimulation). Further details: species or system rats or guinea pigs. Conditions: in vivo. The protocol:
The inhibition of dural protein extravasation is a functional assay for the neuronal mechanism of migraine. A compound's ability to inhibit dural protein extravasation can be tested as described in the following assay.
Anesthetize Harlan Sprague-Dawley rats (225-325 g) or guinea pigs from Charles River Laboratories (225-325 g) with sodium pentobarbital (intraperitoneal injection, 65 mg/kg or 45 mg/kg, respectively). For each animal, place the animal in a stereotaxic frame (David Kopf Instruments) with the incisor bar set at −3.5 mm for rats or −4.0 mm for guinea pigs. […]
Quantify the amount of Evans Blue dye in each sample using a fluorescence microscope (Zeiss) equipped with a grating monochronomator, a spectrophotometer, a computer-driven motorized stage, and an interface to a personal computer. For each dural membrane sample, measure fluorescence at 25 points (500 μm steps covering a 2.5×2.5 mm square area) using an excitation wavelength of approximately 535 nm and measuring the emission intensity at a wavelength of 600 nm. Determined the mean and standard deviation of these measurements. […]

In test [1], `CNS(=O)(=O)Cc1ccc2[nH]cc(CCN(C)C)c2c1` [sumatriptan] yielded an EC50 of 660 nM. Besides, the “extravasation inhibition ID50” value in test [2] was 2.6e-08 mmol/kg.

As usually defined, the EC50 is the concentration needed to bring the measured effect to its halfway point.
